Assay results as given in patent publication US9676732B2, “Ethynyl derivatives” (Hoffmann-La Roche Inc., priority 2013, dated 2017).

Target: human mGlu4 receptor (Homo sapiens (Human), UniProt Q14833)
Experiment: Ca2+ mobilization in vitro assay on recombinant human mGlu4 expressed in HEK293 cells (mGlu4 PAM)
Format: cell-based
Details: for EC50: HEK293 cells stably expressing human mGlu4, L-AP4 added at EC20, read-out: EC50 (nM) mGlu4PAM; for Eff. (%): maximal response in % of the maximal stimulatory effect obtained with saturating concentrations of L-AP4
Protocol: Determination of EC50 Values Using a Ca2+ Mobilization In Vitro Assay on Recombinant Human mGlu4 Expressed in HEK293 Cells:
A monoclonal HEK-293 cell line stably transfected with a cDNA encoding for the human mGlu4 receptor was generated; for the work with mGlu4 Positive Allosteric Modulators (PAMs), a cell line with low receptor expression levels and low constitutive receptor activity was selected to allow the differentiation of agonistic versus PAM activity. Cells were cultured according to standard protocols (Freshney, 2000) in Dulbecco's Modified Eagle Medium with high glucose supplemented with 1 mM glutamine, 10% (vol/vol) heat-inactivated bovine calf serum, Penicillin/Streptomycin, 50 μg/ml hygromycin and 15 μg/ml blasticidin (all cell culture reagents and antibiotics from Invitrogen, Basel, Switzerland).
About 24 hrs before an experiment, 5×10^4 cells/well were seeded in poly-D-lysine coated, black/clear-bottomed 96-well plates. The cells were loaded with 2.5 μM Fluo-4AM in loading buffer (1×HBSS, 20 mM HEPES) for 1 hr at 37° C. and washed five times with loading buffer. The cells were transferred into a Functional Drug Screening System 7000 (Hamamatsu, Paris, France), and 11 half logarithmic serial dilutions of test compound at 37° C. were added and the cells were incubated for 10-30 min. with on-line recording of fluorescence. Following this pre-incubation step, the agonist (2S)-2-amino-4-phosphonobutanoic acid (L-AP4) was added to the cells at a concentration corresponding to EC20 with on-line recording of fluorescence; in order to account for day-to-day variations in the responsiveness of cells, the EC20 of L-AP4 was determined immediately ahead of each experiment by recording of a full dose-response curve of L-AP4.
Responses were measured as peak increase in fluorescence minus basal (i.e. fluorescence without addition of L-AP4), normalized to the maximal stimulatory effect obtained with saturating concentrations of L-AP4. Graphs were plotted with the % maximal stimulatory using XLfit, a curve fitting program that iteratively plots the data using Levenburg Marquardt algorithm. The single site competition analysis equation used was y=A+((B−A)/(1+((x/C)D))), where y is the % maximal stimulatory effect, A is the minimum y, B is the maximum y, C is the EC50, x is the log 10 of the concentration of the competing compound and D is the slope of the curve (the Hill Coefficient). From these curves the EC50 (drug concentration at which 50% of the maximal receptor activation was achieved), the Hill coefficient as well as the maximal response in % of the maximal stimulatory effect obtained with saturating concentrations of L-AP4 were calculated (see FIG. 1).
A depression of the signal observed after addition of the EC20 concentration of L-AP4 was indicative of an inhibitory activity of the test compound. • FIG. 1: Illustration of the experimental outline for mGlu4 PAM Ca2+ mobilization screening assay and the determination of EC50 and % Emax values.

human mGlu4 receptor, sequence (Q14833 33-912): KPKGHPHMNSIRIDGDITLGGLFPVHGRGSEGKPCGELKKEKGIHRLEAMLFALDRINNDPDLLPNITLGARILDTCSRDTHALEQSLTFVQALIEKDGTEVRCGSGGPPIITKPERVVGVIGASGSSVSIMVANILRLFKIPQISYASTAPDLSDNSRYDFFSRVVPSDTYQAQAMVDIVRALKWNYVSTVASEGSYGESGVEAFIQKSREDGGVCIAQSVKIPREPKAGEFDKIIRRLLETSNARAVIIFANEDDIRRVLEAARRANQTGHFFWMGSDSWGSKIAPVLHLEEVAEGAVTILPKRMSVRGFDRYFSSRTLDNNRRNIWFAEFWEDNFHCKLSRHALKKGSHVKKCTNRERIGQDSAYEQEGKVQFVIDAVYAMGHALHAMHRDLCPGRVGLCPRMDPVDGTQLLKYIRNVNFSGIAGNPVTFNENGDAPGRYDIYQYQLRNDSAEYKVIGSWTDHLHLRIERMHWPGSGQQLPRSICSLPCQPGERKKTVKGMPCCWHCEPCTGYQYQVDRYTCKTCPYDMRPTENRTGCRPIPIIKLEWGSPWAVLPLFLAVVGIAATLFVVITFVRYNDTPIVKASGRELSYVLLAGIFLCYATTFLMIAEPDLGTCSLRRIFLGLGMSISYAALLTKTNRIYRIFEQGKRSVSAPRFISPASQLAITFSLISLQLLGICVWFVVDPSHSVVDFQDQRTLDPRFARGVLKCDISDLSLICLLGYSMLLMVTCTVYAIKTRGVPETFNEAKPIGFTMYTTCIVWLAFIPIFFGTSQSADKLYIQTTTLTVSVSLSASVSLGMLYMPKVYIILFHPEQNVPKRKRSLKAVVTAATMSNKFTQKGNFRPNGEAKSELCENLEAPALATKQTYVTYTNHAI

| Structure (SMILES) | EC50 | Eff. (%) |
| --- | --- | --- |
| CC(C)n1c(=O)n(-c2ncc(C#Cc3ccccc3)cc2F)c(=O)c2nn(C)cc21 [Example 56, 6-[3-Fluoro-5-(2-phenylethynyl)-2-pyridyl]-4-isopropyl-2-methyl-pyrazolo[4,3-d]pyrimidine-5,7-dione] | 121 nM | 120% |
| Cn1c(=O)n(-c2ccc(C#Cc3ccccc3)cc2Cl)c(=O)c2cc(F)ccc21 [Example 18, 3-[2-Chloro-4-(2-phenylethynyl)phenyl]-6-fluoro-1-methyl-quinazoline-2,4-dione] | 148 nM | 86% |
| CC(C)n1c(=O)n(-c2ncc(C#Cc3cccnc3)cc2Cl)c(=O)c2nn(C)cc21 [Example 59, 6-[3-Chloro-5-[2-(3-pyridyl)ethynyl]-2-pyridyl]-4-isopropyl-2-methyl-pyrazolo[4,3-d]pyrimidine-5,7-dione] | 169 nM | 146% |
| Cn1c(=O)n(-c2ccc(C#Cc3ccccc3)cc2Cl)c(=O)c2cncnc21 [Example 17, 3-[2-Chloro-4-(2-phenylethynyl)phenyl]-1-methyl-pyrimido[4,5-d]pyrimidine-2,4-dione] | 143 nM | 101% |
| O=c1[nH]c2ncncc2c(=O)n1-c1ccc(C#Cc2ccccc2)cc1Cl [Example 16, 3-[2-Chloro-4-(2-phenylethynyl)phenyl]-1H-pyrimido[4,5-d]pyrimidine-2,4-dione] | 152 nM | 98% |
| CC(C)n1c(=O)n(-c2ccc(C#Cc3cccnc3)cc2Cl)c(=O)c2nccnc21 [Example 22, 3-[2-Chloro-4-[2-(3-pyridyl)ethynyl]phenyl]-1-isopropyl-pteridine-2,4-dione] | 167 nM | 88% |
| Cc1cccc2c(=O)n(-c3c(F)cc(C#Cc4cccnc4)cc3F)c(=O)n(C)c12 [Example 73, 3-[2,6-Difluoro-4-[2-(3-pyridyl)ethynyl]phenyl]-1,8-dimethyl-quinazoline-2,4-dione] | 154 nM | 197% |
| Cn1c(=O)n(-c2ccc(C#Cc3ccccc3)cc2Cl)c(=O)c2scnc21 [Example 52, 6-(2-Chloro-4-phenylethynyl-phenyl)-4-methyl-4H-thiazolo[4,5-d]pyrimidine-5,7-dione] | 200 nM | 110% |
| Cc1cccc2c1c(=O)n(-c1ccc(C#Cc3ccccc3)cc1Cl)c(=O)n2C [Example 41, 3-[2-Chloro-4-(2-phenylethynyl)phenyl]-1,5-dimethyl-quinazoline-2,4-dione] | 231 nM | 98% |
| CC(C)n1c(=O)n(-c2ncc(C#Cc3ccccc3)cc2Cl)c(=O)c2nn(C)cc21 [Example 60, 6-[3-Chloro-5-(2-phenylethynyl)-2-pyridyl]-4-isopropyl-2-methyl-pyrazolo[4,3-d]pyrimidine-5,7-dione] | 189 nM | 150% |
| Cn1c(=O)n(-c2ccc(C#Cc3ccccc3)cc2Cl)c(=O)c2cccc(Cl)c21 [Example 3, 8-Chloro-3-[2-chloro-4-(2-phenylethynyl)phenyl]-1-methyl-quinazoline-2,4-dione] | 137 nM | 93% |
| CC(C)n1c(=O)n(-c2ncc(C#Cc3ccccc3)cc2Cl)c(=O)c2ccccc21 [Example 45, 3-[3-Chloro-5-(2-phenylethynyl)-2-pyridyl]-1-isopropyl-quinazoline-2,4-dione] | 137 nM | 92% |
| COCCn1c(=O)n(-c2ccc(C#Cc3ccccc3)cc2Cl)c(=O)c2ccccc21 [Example 50, 3-[2-Chloro-4-(2-phenylethynyl)phenyl]-1-(2-methoxyethyl)quinazoline-2,4-dione] | 499 nM | 110% |

The next molecules have a lower EC50 than those just listed; values first:

| EC50 | Eff. (%) | Structure (SMILES) |
| --- | --- | --- |
| 108 nM | 108% | Cc1ccnc2c(=O)n(-c3c(F)cc(C#Cc4ccccc4)cc3F)c(=O)n(C)c12 [Example 38, 3-[2,6-Difluoro-4-(2-phenylethynyl)phenyl]-1,8-dimethyl-pyrido[3,2-d]pyrimidine-2,4-dione] |
| 91 nM | 89% | O=c1c2cccc3c2n(c(=O)n1-c1c(F)cc(C#Cc2cccnc2)cc1F)CC3 [Example 30, 2-(2,6-Difluoro-4-(pyridin-3-ylethynyl)phenyl)-5,6-dihydro-1H-pyrrolo[3,2,1-ij]quinazoline-1,3(2H)-dione] |
| 89 nM | 109% | Cn1c(=O)n(-c2c(F)cc(C#Cc3ccccc3)cc2F)c(=O)c2cccnc21 [Example 25, 3-(2,6-Difluoro-4-phenylethynyl-phenyl)-1-methyl-1H-pyrido[2,3-d]pyrimidine-2,4-dione] |
| 88 nM | 73% | CC(C)n1c(=O)n(-c2c(F)cc(C#Cc3ccccc3)cc2F)c(=O)c2cccnc21 [Example 37, 3-[2,6-Difluoro-4-(2-phenylethynyl)phenyl]-1-isopropyl-pyrido[2,3-d]pyrimidine-2,4-dione] |
| 83 nM | 80% | CC(C)n1c(=O)n(-c2c(F)cc(C#Cc3cccnc3)cc2Cl)c(=O)c2ccccc21 [Example 42, 3-[2-Chloro-6-fluoro-4-[2-(3-pyridyl)ethynyl]phenyl]-1-isopropyl-quinazoline-2,4-dione] |
| 74 nM | 85% | Cn1ncc2c1c(=O)n(-c1c(F)cc(C#Cc3ccccc3)cc1F)c(=O)n2C [Example 34, 6-[2,6-Difluoro-4-(2-phenylethynyl)phenyl]-1,4-dimethyl-pyrazolo[4,3-d]pyrimidine-5,7-dione] |
| 65 nM | 134% | CC(C)n1c(=O)n(-c2c(F)cc(C#Cc3cccnc3)cc2F)c(=O)c2nn(C)cc21 [Example 57, 6-[2,6-Difluoro-4-[2-(3-pyridyl)ethynyl]phenyl]-4-isopropyl-2-methyl-pyrazolo[4,3-d]pyrimidine-5,7-dione] |
| 60 nM | 122% | Cn1c(=O)n(-c2c(F)cc(C#Cc3ccccc3)cc2F)c(=O)c2cccc(OCC(F)F)c21 [Example 74, 8-(2,2-Difluoroethoxy)-3-[2,6-difluoro-4-(2-phenylethynyl)phenyl]-1-methyl-quinazoline-2,4-dione] |
| 48 nM | 225% | CC(C)n1c(=O)n(-c2c(F)cc(C#Cc3ccccc3)cc2F)c(=O)c2nccnc21 [Example 68, 3-[2,6-Difluoro-4-(2-phenylethynyl)phenyl]-1-isopropyl-pteridine-2,4-dione] |
| 37 nM | 120% | CC(C)n1c(=O)n(-c2c(F)cc(C#Cc3cccnc3)cc2Cl)c(=O)c2nn(C)cc21 [Example 58, 6-[2-Chloro-6-fluoro-4-[2-(3-pyridyl)ethynyl]phenyl]-4-isopropyl-2-methyl-pyrazolo[4,3-d]pyrimidine-5,7-dione] |
| 33 nM | 104% | Cn1c(=O)n(-c2c(F)cc(C#Cc3ccccc3)cc2F)c(=O)c2scnc21 [Example 32, 6-[2,6-Difluoro-4-(2-phenylethynyl)phenyl]-4-methyl-thiazolo[4,5-d]pyrimidine-5,7-dione] |
| 30 nM | 89% | CC(C)n1c(=O)n(-c2c(F)cc(C#Cc3ccccc3)cc2F)c(=O)c2nn(C)cc21 [Example 35, 6-[2,6-Difluoro-4-(2-phenylethynyl)phenyl]-4-isopropyl-2-methyl-pyrazolo[4,3-d]pyrimidine-5,7-dione] |
| 26 nM | 146% | Cn1ncc2c(=O)n(-c3c(F)cc(C#Cc4ccccc4)cc3F)c(=O)n(C)c21 [Example 63, 5-[2,6-Difluoro-4-(2-phenylethynyl)phenyl]-1,7-dimethyl-pyrazolo[3,4-d]pyrimidine-4,6-dione] |
| 26 nM | 101% | Cc1cccc2c(=O)n(-c3c(F)cc(C#Cc4ccccc4)cc3F)c(=O)n(C)c12 [Example 24, 3-[2,6-Difluoro-4-(2-phenylethynyl)phenyl]-1,8-dimethyl-quinazoline-2,4-dione] |
| 16 nM | 83% | Cc1csc2c(=O)n(-c3c(F)cc(C#Cc4ccccc4)cc3F)c(=O)n(C)c12 [Example 27, 3-[2,6-Difluoro-4-(2-phenylethynyl)phenyl]-1,7-dimethyl-thieno[3,2-d]pyrimidine-2,4-dione] |
